Test results taken from US9334289B2, “Cephem compound having catechol or pseudo-catechol structure” (SHIONOGI & CO., LTD., priority 2011, dated 2016).
In brackets after ≈: the same amount, converted by molar mass.

Assays:
Assay in all cases: MIC, CLSI broth microdilution, Test Example 2
Assay type in all cases: cell-based
[1] = tested on: E. coli ATCCBAA-196; details: Escherichia coli, ATCCBAA196; TEM-10 ESBL producing strain; cation-adjusted Iso-Sensitest broth containing human Apo-transferrin; 5×10^5 cfu/mL; read-out: Minimum Inhibitory Concentration (MIC) E. coli ATCC BAA-196
Method: (§1) Measurement of Minimum Inhibitory Concentration (MIC: μg/mL) was conducted according to CLSI (Clinical and Laboratory Standards Institute) method, and the amount of bacteria for inoculation was 5×10^5 cfu/mL, and cation-adjusted Iso-Sensitest broth containing human Apo-transferrin was used as a test medium, and the experiment was conducted using broth microdilution method.

[2] = tested on: E. coli SR01337; details: Escherichia coli, SR01337; TEM-1 ESBL producing strain; cation-adjusted Iso-Sensitest broth containing human Apo-transferrin; 5×10^5 cfu/mL; read-out: Minimum Inhibitory Concentration (MIC) E. coli SR01337
Method: as §1

[3] = tested on: E. coli ATCCBAA-200; details: Escherichia coli, ATCCBAA200; SHV-4 ESBL producing strain; cation-adjusted Iso-Sensitest broth containing human Apo-transferrin; 5×10^5 cfu/mL; read-out: Minimum Inhibitory Concentration (MIC) E. coli ATCC BAA-200
Method: as §1

[4] = tested on: A. baumannii SR01331; details: Acinetobacter baumannii, SR01331; PER-1, OXA-23.51 ESBL- & OXA-type carbapenemase producing strain; cation-adjusted Iso-Sensitest broth containing human Apo-transferrin; 5×10^5 cfu/mL; read-out: Minimum Inhibitory Concentration (MIC) A. baumannii SR01331
Method: as §1

[5] = tested on: P. aeruginosa SR01335; details: Pseudomonas aeruginosa, SR01335; VIM-1 like MBL producing strain (carbapenem resistance strain); cation-adjusted Iso-Sensitest broth containing human Apo-transferrin; 5×10^5 cfu/mL; read-out: Minimum Inhibitory Concentration (MIC) P. aeruginosa SR01335
Method: as §1

[6] = tested on: P. aeruginosa SR01332; details: Pseudomonas aeruginosa, SR01332; VIM-11 MBL producing strain (carbapenem resistance strain); cation-adjusted Iso-Sensitest broth containing human Apo-transferrin; 5×10^5 cfu/mL; read-out: Minimum Inhibitory Concentration (MIC) P. aeruginosa SR01332
Method: as §1

[7] = tested on: E. cloacae NCTC13464; details: Enterobacter cloacae, NCTC13464; CTX-M group 9 ESBL producing strain; cation-adjusted Iso-Sensitest broth containing human Apo-transferrin; 5×10^5 cfu/mL; read-out: Minimum Inhibitory Concentration (MIC) E. cloacae NCTC 13464
Method: as §1

[8] = tested on: K. pneumoniae ATCC700603; details: Klebsiella pneumoniae, ATCC700603; SHV18 ESBL producing strain; cation-adjusted Iso-Sensitest broth containing human Apo-transferrin; 5×10^5 cfu/mL; read-out: Minimum Inhibitory Concentration (MIC) K. pneumoniae ATCC 700603
Method: as §1

Row | SMILES | MIC [1] | MIC [2] | MIC [3] | MIC [4] | MIC [5] | MIC [6] | MIC [7] | MIC [8]
1 | CC(C)(O/N=C(\C(=O)N[C@@H]1C(=O)N2C(c3nnn[n-]3)=C(C[N@+]34CCC[C@H]3CN(C(=O)c3cc(O)c(O)c(Cl)c3)CC4)CS[C@H]12)c1nc(N)sc1Cl)C(=O)[O-].[Na+] [Compound I-29] | ≤ 0.031 µg/mL | ≤ 0.031 µg/mL | 0.063 µg/mL | 0.5 µg/mL | 2 µg/mL | 4 µg/mL | 0.063 µg/mL | 0.125 µg/mL
2 | C[N+]1(CC2=C(c3nnn[n-]3)N3C(=O)[C@@H](NC(=O)/C(=N\O[C@@H](CC(=O)[O-])C(=O)[O-])c4csc(N)n4)[C@H]3SC2)CCN(C(=O)c2ccc(O)c(O)c2Cl)CC1.[Na+].[Na+] [Compound I-61] | 0.063 µg/mL | 0.063 µg/mL | 0.25 µg/mL | 1 µg/mL | 4 µg/mL | 4 µg/mL | 0.125 µg/mL | 0.125 µg/mL
3 | Cc1cc2cc(O)c(O)cc2c[n+]1CC1=C(c2nnn[n-]2)N2C(=O)[C@@H](NC(=O)/C(=N\OC(C)(C)C(=O)[O-])c3nc(N)sc3Cl)[C@H]2SC1.[Na+] [Compound I-38] | 0.063 µg/mL | ≤ 0.031 µg/mL | 0.25 µg/mL | 0.5 µg/mL | 1 µg/mL | 0.5 µg/mL | 0.125 µg/mL | 0.125 µg/mL
4 | Nc1nc(/C(=N/O[C@@H](CC(=O)O)C(=O)[O-])C(=O)N[C@@H]2C(=O)N3C(c4nnn[nH]4)=C(C[N+]4(CCNC(=O)c5cc(O)c(O)c(F)c5)CCCC4)CS[C@H]23)cs1 [Compound I-99] | ≤ 0.031 µg/mL | ≤ 0.031 µg/mL | 0.063 µg/mL (≈ 0.0798 µM) | 0.5 µg/mL (≈ 0.633 µM) | 2 µg/mL (≈ 2.53 µM) | 4 µg/mL (≈ 5.06 µM) | 0.125 µg/mL (≈ 0.158 µM) | 0.063 µg/mL (≈ 0.0798 µM)
5 | CC(C)(O/N=C(\C(=O)N[C@@H]1C(=O)N2C(c3nnn[n-]3)=C(C[N@+]34CCC[C@H]3CN(C(=O)c3cc(O)c(O)c(F)c3)CC4)CS[C@H]12)c1nc(N)sc1Cl)C(=O)[O-].[Na+] [Compound I-34] | 0.063 µg/mL | ≤ 0.031 µg/mL | 0.25 µg/mL | 1 µg/mL | 2 µg/mL | 4 µg/mL | 0.5 µg/mL | 0.5 µg/mL
6 | CC(C)(O/N=C(\C(=O)N[C@@H]1C(=O)N2C(c3nnn[n-]3)=C(C[N+]3(CCNC(=O)c4ccc(O)c(O)c4Cl)CCCC3)CS[C@H]12)c1csc(N)n1)C(=O)[O-].[Na+] [Compound I-82] | 0.125 µg/mL | ≤ 0.031 µg/mL | 0.25 µg/mL | 0.5 µg/mL | 1 µg/mL | 4 µg/mL | 0.125 µg/mL | 0.125 µg/mL
7 | CC(C)(O/N=C(\C(=O)N[C@@H]1C(=O)N2C(c3nnn[nH]3)=C(C[N@+]34CCC[C@H]3CN(C(=O)c3ccc(O)c(O)c3Cl)CC4)CS[C@H]12)c1csc(N)n1)C(=O)[O-] [Compound I-98] | 0.25 µg/mL (≈ 0.317 µM) | ≤ 0.031 µg/mL | 0.5 µg/mL (≈ 0.634 µM) | 1 µg/mL (≈ 1.27 µM) | 2 µg/mL (≈ 2.54 µM) | 8 µg/mL (≈ 10.1 µM) | 0.125 µg/mL (≈ 0.159 µM) | 0.25 µg/mL (≈ 0.317 µM)
8 | Nc1nc(/C(=N/O[C@@H](CC(=O)[O-])C(=O)[O-])C(=O)N[C@@H]2C(=O)N3C(c4nnn[n-]4)=C(C[n+]4ccc5cc(O)c(O)cc5c4)CS[C@H]23)cs1.[Na+].[Na+] [Compound I-65] | ≤ 0.031 µg/mL | ≤ 0.031 µg/mL | ≤ 0.031 µg/mL | 0.125 µg/mL | 0.5 µg/mL | 0.25 µg/mL | ≤ 0.031 µg/mL | ≤ 0.031 µg/mL
9 | Nc1nc(/C(=N/O[C@@H](CC(=O)[O-])C(=O)[O-])C(=O)N[C@@H]2C(=O)N3C(c4nnn[n-]4)=C(C[N+]4(CCNC(=O)c5cc(Cl)c(O)c(O)c5Cl)CCCC4)CS[C@H]23)cs1.[Na+].[Na+] [Compound I-60] | ≤ 0.031 µg/mL | ≤ 0.031 µg/mL | 0.063 µg/mL | 0.5 µg/mL | 1 µg/mL | 4 µg/mL | 0.063 µg/mL | ≤ 0.031 µg/mL

Other lines, results leading:

Row | MIC [1] | MIC [2] | MIC [3] | MIC [4] | MIC [5] | MIC [6] | MIC [7] | MIC [8] | SMILES
10 | 0.25 µg/mL (≈ 0.329 µM) | ≤ 0.031 µg/mL | 0.25 µg/mL (≈ 0.329 µM) | 1 µg/mL (≈ 1.31 µM) | 2 µg/mL (≈ 2.63 µM) | 2 µg/mL (≈ 2.63 µM) | 0.125 µg/mL (≈ 0.164 µM) | 0.25 µg/mL (≈ 0.329 µM) | CC(C)(O/N=C(\C(=O)N[C@@H]1C(=O)N2C(c3nnn[nH]3)=C(C[N+]3(CCNC(=O)c4cc(O)c(O)c(F)c4)CCCC3)CS[C@H]12)c1nsc(N)n1)C(=O)[O-] [Compound I-108]
11 | 0.5 µg/mL | ≤ 0.031 µg/mL | 1 µg/mL | 0.25 µg/mL | 1 µg/mL | 2 µg/mL | ≤ 0.031 µg/mL | 0.25 µg/mL | CC(C)(O/N=C(\C(=O)N[C@@H]1C(=O)N2C(c3nnn[n-]3)=C(C[n+]3ccc(NC(=O)c4ccc(O)c(O)c4Cl)cc3)CS[C@H]12)c1nsc(N)n1)C(=O)[O-].[Na+] [Compound I-116]
12 | 0.063 µg/mL (≈ 0.0766 µM) | ≤ 0.031 µg/mL | 0.25 µg/mL (≈ 0.304 µM) | 2 µg/mL (≈ 2.43 µM) | 2 µg/mL (≈ 2.43 µM) | 4 µg/mL (≈ 4.86 µM) | 0.25 µg/mL (≈ 0.304 µM) | 0.25 µg/mL (≈ 0.304 µM) | CC(C)(O/N=C(\C(=O)N[C@@H]1C(=O)N2C(c3nnn[nH]3)=C(C[N@+]34CCC[C@H]3CN(C(=O)c3ccc(O)c(O)c3Cl)CC4)CS[C@H]12)c1nc(N)sc1Cl)C(=O)[O-] [Compound I-105]
13 | 0.5 µg/mL (≈ 0.643 µM) | ≤ 0.031 µg/mL | 0.5 µg/mL (≈ 0.643 µM) | 0.5 µg/mL (≈ 0.643 µM) | 2 µg/mL (≈ 2.57 µM) | 4 µg/mL (≈ 5.15 µM) | 0.125 µg/mL (≈ 0.161 µM) | 0.25 µg/mL (≈ 0.322 µM) | CC(C)(O/N=C(\C(=O)N[C@@H]1C(=O)N2C(c3nnn[nH]3)=C(C[N+]3(CCNC(=O)c4cc(O)c(O)c(Cl)c4)CCCC3)CS[C@H]12)c1nsc(N)n1)C(=O)[O-] [Compound I-119]
14 | ≤ 0.031 µg/mL | ≤ 0.031 µg/mL | 0.063 µg/mL (≈ 0.0773 µM) | 0.25 µg/mL (≈ 0.307 µM) | 1 µg/mL (≈ 1.23 µM) | 2 µg/mL (≈ 2.46 µM) | 0.063 µg/mL (≈ 0.0773 µM) | 0.125 µg/mL (≈ 0.153 µM) | C[N+](C)(CCNC(=O)c1ccc(O)c(O)c1Cl)CC1=C(c2nnn[nH]2)N2C(=O)[C@@H](NC(=O)/C(=N\O[C@@H](CC(=O)O)C(=O)[O-])c3nc(N)sc3Cl)[C@H]2SC1 [Compound I-101]
15 | 0.25 µg/mL (≈ 0.329 µM) | 0.063 µg/mL (≈ 0.0828 µM) | 0.5 µg/mL (≈ 0.657 µM) | 0.5 µg/mL (≈ 0.657 µM) | 2 µg/mL (≈ 2.63 µM) | 2 µg/mL (≈ 2.63 µM) | 0.063 µg/mL (≈ 0.0828 µM) | 0.125 µg/mL (≈ 0.164 µM) | CC(C)(O/N=C(\C(=O)N[C@@H]1C(=O)N2C(c3nnn[nH]3)=C(C[N+]3(CCNC(=O)c4ccc(O)c(O)c4F)CCCC3)CS[C@H]12)c1nsc(N)n1)C(=O)[O-] [Compound I-107]
16 | 0.5 µg/mL (≈ 0.634 µM) | 0.063 µg/mL (≈ 0.0798 µM) | – | 1 µg/mL (≈ 1.27 µM) | 2 µg/mL (≈ 2.53 µM) | 4 µg/mL (≈ 5.07 µM) | 0.25 µg/mL (≈ 0.317 µM) | 0.5 µg/mL (≈ 0.634 µM) | CC(C)(O/N=C(\C(=O)N[C@@H]1C(=O)N2C(c3nnn[nH]3)=C(C[N@+]34CCC[C@H]3CN(C(=O)c3ccc(O)c(O)c3Cl)CC4)CS[C@H]12)c1nsc(N)n1)C(=O)[O-] [Compound I-112]
17 | ≤ 0.031 µg/mL | ≤ 0.031 µg/mL | ≤ 0.031 µg/mL | 0.125 µg/mL | 0.5 µg/mL | 1 µg/mL | 0.063 µg/mL | ≤ 0.031 µg/mL | Cc1cc2cc(O)c(O)cc2c[n+]1CC1=C(c2nnn[n-]2)N2C(=O)[C@@H](NC(=O)/C(=N\OC(C)(C)C(=O)[O-])c3csc(N)n3)[C@H]2SC1.[Na+] [Compound I-121]
18 | ≤ 0.031 µg/mL | ≤ 0.031 µg/mL | 0.063 µg/mL (≈ 0.0764 µM) | 0.25 µg/mL (≈ 0.303 µM) | 2 µg/mL (≈ 2.43 µM) | 2 µg/mL (≈ 2.43 µM) | 0.25 µg/mL (≈ 0.303 µM) | 0.125 µg/mL (≈ 0.152 µM) | Nc1nc(/C(=N/O[C@@H](CC(=O)O)C(=O)[O-])C(=O)N[C@@H]2C(=O)N3C(c4nnn[nH]4)=C(C[N+]4(CCNC(=O)c5cc(O)c(O)c(F)c5)CCCC4)CS[C@H]23)c(Cl)s1 [Compound I-100]
19 | 1 µg/mL (≈ 1.29 µM) | 0.125 µg/mL (≈ 0.162 µM) | – | 1 µg/mL (≈ 1.29 µM) | 2 µg/mL (≈ 2.59 µM) | 2 µg/mL (≈ 2.59 µM) | 0.25 µg/mL (≈ 0.323 µM) | 0.5 µg/mL (≈ 0.647 µM) | CC(C)(O/N=C(\C(=O)N[C@@H]1C(=O)N2C(c3nnn[nH]3)=C(C[N@+]34CCC[C@H]3CN(C(=O)c3cc(O)c(O)c(F)c3)CC4)CS[C@H]12)c1nsc(N)n1)C(=O)[O-] [Compound I-111]
20 | 0.5 µg/mL | 0.063 µg/mL | – | 1 µg/mL | 0.5 µg/mL | 8 µg/mL | 0.25 µg/mL | 0.25 µg/mL | CC(C)(O/N=C(\C(=O)N[C@@H]1C(=O)N2C(c3nnn[nH]3)=C(C[N+]3(C)CCN(C(=O)c4ccc(O)c(O)c4Cl)CC3)CS[C@H]12)c1nsc(N)n1)C(=O)O.[Na+] [Compound I-110]
